According to ChEMBL document CHEMBL3885861, “Open TG-GATES”:

Species: Rattus norvegicus
Experiment: Open TG-GATES - Regimen: Daily Repeat
Format: toxicity, organism-based, Sprague-Dawley
Parameters: regimen Daily Repeat, gender Male, age 6 weeks
Conditions: in vivo, po, 200 mg/kg, route gavage, dose level Middle; for APTT / Bas / Eos / Fbg / Hb / Ht / Lym / MCH / MCHC / MCV / Mono / Neu / PT / Plat / RBC / Ret / WBC: tissue Blood; for KIDNEY_L / KIDNEY_R / KIDNEY_TOTAL: tissue Kidney; for LIVER: tissue Liver; for A/G / ALP / ALT / AST / BUN / CRE / Ca / Cl / DBIL / GLC / IP / K / LDH / Na / PL / RALB / TBIL / TC / TG / TP / gamma-GTP: tissue Plasma

In the case of `CCOC(=O)[C@H](CCc1ccccc1)N[C@@H](C)C(=O)N1CCC[C@H]1C(=O)O`, the TERMINAL_BW (72 h, time 3 day) is reported as 240.7 g, the APTT (72 h, time 3 day) is reported as 15.8 s and the Bas (72 h, time 3 day) is reported as 0%. It also gave an Eos (72 h, time 3 day) of 1%, a Fbg (72 h, time 3 day) of 231 mg/dL and a Hb (72 h, time 3 day) of 13.2 g/dL. For the same compound, the Ht (72 h, time 3 day) was 40.1%, the Lym (72 h, time 3 day) was 78% and the MCH (72 h, time 3 day) was 21.9 pg. The MCHC (72 h, time 3 day) was 32.9%, the MCV (72 h, time 3 day) was 66.6 fL and the Mono (72 h, time 3 day) was 8.4%. For the same compound, the Neu (72 h, time 3 day) was 12.6%, the PT (72 h, time 3 day) was 11.8 s and the Plat (72 h, time 3 day) was 114.3 x10_4/uL. It also gave an RBC (72 h, time 3 day) of 601.8 x10_4/ul, a Ret (72 h, time 3 day) of 5.9% and a WBC (72 h, time 3 day) of 85.6 x10_2/uL. The KIDNEY_L (72 h, time 3 day) was 1.1 g, the KIDNEY_R (72 h, time 3 day) was 1.1 g and the KIDNEY_TOTAL (72 h, time 3 day) was 2.2 g. The LIVER (72 h, time 3 day) was 11.8 g, the A/G (72 h, time 3 day) was 2 and the ALP (72 h, time 3 day) was 912.6 IU/L. For the same compound, the ALT (72 h, time 3 day) was 35 IU/L, the AST (72 h, time 3 day) was 65.2 IU/L and the BUN (72 h, time 3 day) was 19.4 mg/dL. It also gave a CRE (72 h, time 3 day) of 0.5 mg/dL, a Ca (72 h, time 3 day) of 11 mg/dL and a Cl (72 h, time 3 day) of 104.4 meq/L. The DBIL (72 h, time 3 day) was 0.03 mg/dL, the GLC (72 h, time 3 day) was 193 mg/dL and the IP (72 h, time 3 day) was 8.7 mg/dL. For the same compound, the K (72 h, time 3 day) was 4.3 meq/L, the LDH (72 h, time 3 day) was 98.2 IU/L and the Na (72 h, time 3 day) was 140.8 meq/L. The PL (72 h, time 3 day) was 146 mg/dL, the RALB (72 h, time 3 day) was 4 g/dL and the TBIL (72 h, time 3 day) was 0.4 mg/dL. For the same compound, the TC (72 h, time 3 day) was 81.4 mg/dL, the TG (72 h, time 3 day) was 81.2 mg/dL and the TP (72 h, time 3 day) was 6 g/dL. It also gave a gamma-GTP (72 h, time 3 day) of 1.4 IU/L, a TERMINAL_BW ([…], time 7 day) of 259.9 g and a TERMINAL_BW ([…], time 14 day) of 304.7 g. For the same compound, the TERMINAL_BW ([…], time 28 day) was 336 g, the APTT ([…], time 7 day) was 16.8 s and the Bas ([…], time 7 day) was 0%. For the same compound, the Eos ([…], time 7 day) was 1%, the Fbg ([…], time 7 day) was 228 mg/dL and the Hb ([…], time 7 day) was 13.3 g/dL. It also gave a Ht ([…], time 7 day) of 40.2%, a Lym ([…], time 7 day) of 81.8% and an MCH ([…], time 7 day) of 20.4 pg. It also gave an MCHC ([…], time 7 day) of 33.1%, an MCV ([…], time 7 day) of 61.7 fL and a Mono ([…], time 7 day) of 6.2%. For the same compound, the Neu ([…], time 7 day) was 10.8%, the PT ([…], time 7 day) was 11.6 s and the Plat ([…], time 7 day) was 123.3 x10_4/uL. The RBC ([…], time 7 day) was 651.6 x10_4/ul, the Ret ([…], time 7 day) was 4.1% and the WBC ([…], time 7 day) was 108.2 x10_2/uL. It also gave an APTT ([…], time 14 day) of 16.2 s, a Bas ([…], time 14 day) of 0% and an Eos ([…], time 14 day) of 1.2%. For the same compound, the Fbg ([…], time 14 day) was 242.2 mg/dL, the Hb ([…], time 14 day) was 13.4 g/dL and the Ht ([…], time 14 day) was 40.5%. It also gave a Lym ([…], time 14 day) of 81%, an MCH ([…], time 14 day) of 20.2 pg and an MCHC ([…], time 14 day) of 33.2%. The MCV ([…], time 14 day) was 60.8 fL, the Mono ([…], time 14 day) was 6% and the Neu ([…], time 14 day) was 12%. For the same compound, the PT ([…], time 14 day) was 11.5 s, the Plat ([…], time 14 day) was 113 x10_4/uL and the RBC ([…], time 14 day) was 666.8 x10_4/ul. It also gave a Ret ([…], time 14 day) of 3.6%, a WBC ([…], time 14 day) of 116.4 x10_2/uL and an APTT ([…], time 28 day) of 15.5 s. It also gave a Bas ([…], time 28 day) of 0%, an Eos ([…], time 28 day) of 1% and a Fbg ([…], time 28 day) of 240.2 mg/dL. The Hb ([…], time 28 day) was 14.3 g/dL, the Ht ([…], time 28 day) was 42.9% and the Lym ([…], time 28 day) was 87.4%. The MCH ([…], time 28 day) was 19 pg, the MCHC ([…], time 28 day) was 33.3% and the MCV ([…], time 28 day) was 57.1 fL. It also gave a Mono ([…], time 28 day) of 4.2%, a Neu ([…], time 28 day) of 7.4% and a PT ([…], time 28 day) of 11.8 s. The Plat ([…], time 28 day) was 101.7 x10_4/uL, the RBC ([…], time 28 day) was 752.2 x10_4/ul and the Ret ([…], time 28 day) was 3.4%. The WBC ([…], time 28 day) was 172.8 x10_2/uL, the KIDNEY_L ([…], time 7 day) was 1.2 g and the KIDNEY_R ([…], time 7 day) was 1.2 g. It also gave a KIDNEY_TOTAL ([…], time 7 day) of 2.4 g, a KIDNEY_L ([…], time 14 day) of 1.3 g and a KIDNEY_R ([…], time 14 day) of 1.3 g. The KIDNEY_TOTAL ([…], time 14 day) was 2.6 g, the KIDNEY_L ([…], time 28 day) was 1.4 g and the KIDNEY_R ([…], time 28 day) was 1.4 g. The KIDNEY_TOTAL ([…], time 28 day) was 2.9 g, the LIVER ([…], time 7 day) was 11.6 g and the LIVER ([…], time 14 day) was 12.7 g. The LIVER ([…], time 28 day) was 12.8 g, the A/G ([…], time 7 day) was 2.2 and the ALP ([…], time 7 day) was 881.8 IU/L. It also gave an ALT ([…], time 7 day) of 27.4 IU/L, an AST ([…], time 7 day) of 56.8 IU/L and a BUN ([…], time 7 day) of 24 mg/dL. It also gave a CRE ([…], time 7 day) of 0.5 mg/dL, a Ca ([…], time 7 day) of 10.3 mg/dL and a Cl ([…], time 7 day) of 104.4 meq/L. For the same compound, the DBIL ([…], time 7 day) was 0.002 mg/dL, the GLC ([…], time 7 day) was 207.4 mg/dL and the IP ([…], time 7 day) was 8.4 mg/dL. For the same compound, the K ([…], time 7 day) was 4.7 meq/L, the LDH ([…], time 7 day) was 88.8 IU/L and the Na ([…], time 7 day) was 136.6 meq/L. The PL ([…], time 7 day) was 141.6 mg/dL, the RALB ([…], time 7 day) was 3.9 g/dL and the TBIL ([…], time 7 day) was 0.4 mg/dL. It also gave a TC ([…], time 7 day) of 74.6 mg/dL, a TG ([…], time 7 day) of 81.8 mg/dL and a TP ([…], time 7 day) of 5.7 g/dL. For the same compound, the gamma-GTP ([…], time 7 day) was 1.4 IU/L, the A/G ([…], time 14 day) was 1.9 and the ALP ([…], time 14 day) was 760.4 IU/L. The ALT ([…], time 14 day) was 28.4 IU/L, the AST ([…], time 14 day) was 57.2 IU/L and the BUN ([…], time 14 day) was 27.6 mg/dL. It also gave a CRE ([…], time 14 day) of 0.6 mg/dL, a Ca ([…], time 14 day) of 10.8 mg/dL and a Cl ([…], time 14 day) of 105.6 meq/L. The DBIL ([…], time 14 day) was 0.008 mg/dL, the GLC ([…], time 14 day) was 194.8 mg/dL and the IP ([…], time 14 day) was 8.3 mg/dL. The K ([…], time 14 day) was 4.6 meq/L, the LDH ([…], time 14 day) was 86.2 IU/L and the Na ([…], time 14 day) was 138 meq/L. For the same compound, the PL ([…], time 14 day) was 154.8 mg/dL, the RALB ([…], time 14 day) was 3.9 g/dL and the TBIL ([…], time 14 day) was 0.3 mg/dL. For the same compound, the TC ([…], time 14 day) was 83 mg/dL, the TG ([…], time 14 day) was 83.2 mg/dL and the TP ([…], time 14 day) was 6.1 g/dL. For the same compound, the gamma-GTP ([…], time 14 day) was 1.2 IU/L, the A/G ([…], time 28 day) was 1.8 and the ALP ([…], time 28 day) was 617.8 IU/L. For the same compound, the ALT ([…], time 28 day) was 24 IU/L, the AST ([…], time 28 day) was 55.4 IU/L and the BUN ([…], time 28 day) was 45.2 mg/dL. It also gave a CRE ([…], time 28 day) of 0.7 mg/dL, a Ca ([…], time 28 day) of 10.2 mg/dL and a Cl ([…], time 28 day) of 105.8 meq/L. The DBIL ([…], time 28 day) was 0.078 mg/dL, the GLC ([…], time 28 day) was 206 mg/dL and the IP ([…], time 28 day) was 7.5 mg/dL. For the same compound, the K ([…], time 28 day) was 4.8 meq/L, the LDH ([…], time 28 day) was 62.4 IU/L and the Na ([…], time 28 day) was 137.6 meq/L. It also gave a PL ([…], time 28 day) of 145.6 mg/dL, an RALB ([…], time 28 day) of 3.8 g/dL and a TBIL ([…], time 28 day) of 0.3 mg/dL. The TC ([…], time 28 day) was 77 mg/dL, the TG ([…], time 28 day) was 87.2 mg/dL and the TP ([…], time 28 day) was 5.9 g/dL. It also gave a gamma-GTP ([…], time 28 day) of 2.2 IU/L.
